From paper PMC3522636, “4F Decreases IRF5 Expression and Activation in Hearts of Tight Skin Mice” (PLoS ONE, 2012)
“Also recorded” adds a separate entry of the source.

Legend:
Tsk−/+ mice = conditions: 1 mg/kg/d, 6–8 weeks; cited from earlier work
Description: One of the reasons that we felt 4F decreased inflammation by a mechanism(s) other than those mediated by HDL function, was the extreme differences in the histopathology of the hearts from untreated and 4F treated Tsk^−/+ mice. Untreated Tsk^−/+ hearts contained much higher levels of oxidized phospholipids, and autoantibodies against oxidized lipids than control hearts. In addition, untreated Tsk^−/+ hearts were also more fibrotic and expressed more angiostatin than control hearts, which likely contributed to the notable losses in angiogenic potential in the hearts of these mice. Wh ...

IRF5 [1] = biological target: T1, IRF5 (Homo sapiens, UniProt Q13568); experiment: Biolayer interferometry, 4F binding to B-IRF5; conditions: B-IRF5 on SA biosensors, Octet Red 96
T1 construct: purchased GenScript USA Inc
T1 sequence (Q13568 1-498): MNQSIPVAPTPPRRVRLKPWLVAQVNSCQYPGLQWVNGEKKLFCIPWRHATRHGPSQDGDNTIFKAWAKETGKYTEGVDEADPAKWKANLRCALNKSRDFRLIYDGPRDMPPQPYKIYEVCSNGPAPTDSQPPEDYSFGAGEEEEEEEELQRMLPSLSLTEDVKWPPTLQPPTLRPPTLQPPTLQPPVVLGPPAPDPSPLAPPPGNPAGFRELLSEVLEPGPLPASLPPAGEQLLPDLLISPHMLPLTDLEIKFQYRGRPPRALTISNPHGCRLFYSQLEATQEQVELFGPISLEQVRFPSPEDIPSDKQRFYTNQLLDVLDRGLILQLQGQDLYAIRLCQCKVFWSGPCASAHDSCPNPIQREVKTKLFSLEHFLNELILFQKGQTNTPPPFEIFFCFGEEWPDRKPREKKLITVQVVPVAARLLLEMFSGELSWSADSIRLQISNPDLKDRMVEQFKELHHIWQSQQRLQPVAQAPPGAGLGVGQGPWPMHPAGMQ
Protocol: Biolayer Interferometry (BLI): Protein-protein interactions were determined by BLI using an Octet Red 96™ interferometer (ForteBio, Inc, Menlo Park, CA). IRF5 was purchased (GenScript USA Inc) and labeled with biotin (cat no. 21329, Thermo Fisher Scientific, Rockford, IL) at a ratio of 1∶1, which is optimal for binding and packaging target proteins onto SA biosensors (MR18-0009, ForteBio) for studying protein-protein interactions. Biotin-labeled IRF5 (B-IRF5) was loaded onto SA-biosensors in PBS for 15 minutes to ensure saturation. The B-IRF5-loaded SA biosensors were incubated in PBS containing 4F (20 µg/ml) for 10 minutes and association measured by following increases in wavelength interference. Next the loaded biosensors were incubated in PBS alone for 10 minutes to measure dissociation of 4F from B-IRF5 by following decreases in wavelength interference.

Tsk−/+ hearts = experiment: TUNEL assay, apoptotic cells in heart sections; type: in vivo, mouse; conditions: 4F 1 mg/kg/d, sc; 4F-treated vs untreated Tsk−/+ hearts
Description: (§1) All experimental procedures and protocols involving mice were reviewed and approved by the Institutional Animal Care and Use Committee (IACUC) of the Medical College of Wisconsin (AUA#512). They also conformed to the rules in the Guiding Principles in the Care and Use of Animals published by the American Physiologic Society and the Guide for the Care and Use of Laboratory Animals published by OLAW. Male Tsk^−/+ and C57Bl/6J mice (6–8 weeks of age) were purchased from Jackson Laboratories (Bar Harbor, ME). Three groups of mice were studied; C57Bl/6J, Tsk^−/+, and Tsk^−/+ mice treated with 4F (1 mg/kg/d, sc) as published previously.
Hearts were harvested from mice, flash frozen and imbedded in OCT and cut into 10 µm sections. A TUNEL assay was performed on the sections using an ApopTag Plus Fluorescein labeled kit (Millipore, Billerica, MA, Cat# S7111) as per the manufacturer’s instructions. Briefly, the free 3'OH DNA termini were labeled in situ with an anti-digoxigenin antibody conjugated to fluorescein. Nuclei were stained with TO-PRO 3™ for 3 minutes (1 µg/ml, Invitrogen). Slides were mounted and analyzed by confocal microscopy (Nikon Eclipse TE2000-U, EZ-C1-2 10 software, Nikon, Melville, NY). Images were captured using 488 nm excitation for fluorescein and 633 nm for nuclear labeling. Intensity was measured using Nikon Element imaging software (Nikon).

TNFα, Il-6, and Il-1 = conditions: cited from earlier work
Description: The purpose of this study was to investigate an alternative mechanism for 4F decreasing myocardial inflammation in Tsk^−/+mice. While our previous report focused on 4F’s ability to decrease inflammation by improving HDL function, the current study determines the effects of 4F on IRF5. We chose to investigate this potential mechanism for two important reasons. […] These inflammatory mediators are all gene products of IRF5 [9], [29]. Second, genetic links between IRF5 and SSc have been ide ...

IRF5 [2] = experiment: IRF5 immunoprecipitation, phosphoserine and ubiquitin on IRF5 in heart lysates; type: in vivo, mouse
Description: as §1
To determine the effects of strain and 4F treatments on the activation state of IRF5 we immunoprecipitated IRF5 from heart homogenates and examined changes in phosphoserine and ubiquitination on IRF5 using previously published protocols, [15]. Briefly, heart homogenates were precleared with agarose beads for 1 hour followed by addition of anti-IRF5 antibody (Santa Cruz Biotechnologies) to the homogenates (500 µg in 0.5 ml) at 5 µg/100 µl (final concentration). Samples were incubated for 16 h at 4°C with end-over-end mixing. A 50 µl aliquot of a 50% slurry of Protein A agarose beads (Santa Cruz Biotechnologies) was added and incubated for 2 h with end-over-end mixing to pull-down immunocaptured IRF5. The beads were isolated by centrifugation and washed 3 times (3 minutes each time) in PBS. IRF5 was released from the beads with Laemmli sample buffer (Bio-Rad, Hercules, CA) containing mercaptoethanol and heating to 95°C for 5 min. IRF5 was separated from co-precipitated proteins by SDS-PAGE (4–15% Tris·HCl Criterion gels, Bio-Rad) and the proteins transferred onto nitrocellulose membranes. Membranes were blocked in 10% non-fat dry milk and then incubated in 2% non-fat dry milk containing polyclonal rabbit anti-phosphoserine (Antibodies-Online, Atlanta, GA, 1∶200 dilution), monoclonal mouse anti-ubiquitin (Santa Cruz Biotechnologies, 1∶200 dilution) or monoclonal mouse anti-K^63 ubiquitin (Enzo, Farmingdale, NY, 1∶500 dilution) overnight at 4°C. The next day, the membranes were gently washed and incubated with the HRP-conjugated donkey anti-rabbit antibody (1∶5,000, Santa Cruz Biotechnologies). Autoradiograms were developed; images of bands captured and densities analyzed as described above.

association with B-IRF5 (IRF5 [1]; 4F 20 µg/ml in PBS, 10 minutes): rapidly associated
dissociation from B-IRF5 (IRF5 [1]; PBS alone, 10 minutes): slow
Substance: Ac-DWFKAFYDKVAEKFKEAF-NH2 [4F]
oxidized phospholipids and autoantibodies against oxidized phospholipids in hearts (Tsk−/+ mice): essentially eliminated oxidized phospholipids, and autoantibodies against oxidized phospholipids from the hearts
association versus dissociation with IRF5 (IRF5 [1]; 4F 20 µg/ml): favoring association over dissociation; also recorded: favors association over dissociation; also recorded: rate of 4F association with IRF5 is faster than their rate of dissociation
TUNEL positive (apoptotic) cells (Tsk−/+ hearts): decreased both measurements in Tsk^−/+ hearts; also recorded: significantly decreased the number of TUNEL positive cells in Tsk^−/+ hearts compared to the number in untreated Tsk^−/+ hearts but not to the level of TUNEL positive cells in C57Bl/6J hearts; also recorded: increased compared with the levels in the hearts of C57BL/6J mice and hearts from 4F-treated Tsk^−/+ mice; also recorded: fewer apoptotic cells than hearts from untreated Tsk^−/+ mice
expression of TNFα, Il-6, and Il-1 (TNFα, Il-6, and Il-1): decreases expression of TNFα, Il-6, and Il-1
phosphoserine levels on IRF5 (in words) (IRF5 [2]; 4F 1 mg/kg/d, sc, Tsk−/+ hearts, IRF5 immunoprecipitates): decrease phosphoserine; also recorded: reduced phosphoserine levels on IRF5 in Tsk^−/+ hearts
decrease of phosphoserine levels on IRF5 (IRF5 [2]; 4F-treated Tsk−/+ hearts vs C57BL/6J and untreated Tsk−/+ hearts, IRF5 immunoprecipitates, Western blot): about 15%
total ubiquitin on IRF5 (IRF5 [2]; 4F-treated Tsk−/+ hearts vs C57BL/6J hearts, * = p<0.05, n = 4, IRF5 immunoprecipitates): increase total ubiquitin on IRF5; also recorded: increased in 4F-treated Tsk^−/+ hearts compared with the levels on IRF5 in C57BL/6J hearts; also recorded: significantly increased total ubiquitin levels on IRF5 in the Tsk^−/+ hearts
IRF5 activation (in words) (IRF5 [2]; 4F-treated Tsk−/+ hearts, inferred from phosphoserine and ubiquitin on IRF5): decrease IRF5 expression and activation in Tsk^−/+ hearts; also recorded: inactivated in 4F-treated Tsk^−/+ hearts
